According to paper PMC5343402, “Gossypol has anti-cancer effects by dual-targeting MDM2 and VEGF in human breast cancer” (Breast Cancer Research : BCR, 2017):

Molecular target: T1, MDM2 (RING protein) (Homo sapiens, UniProt Q00987)
T1 construct: MDM2 RING protein
Assay: isothermal titration calorimetry (auto-iTC200, one-site fit)
Assay type: binding

T1 sequence (Q00987 whole entry): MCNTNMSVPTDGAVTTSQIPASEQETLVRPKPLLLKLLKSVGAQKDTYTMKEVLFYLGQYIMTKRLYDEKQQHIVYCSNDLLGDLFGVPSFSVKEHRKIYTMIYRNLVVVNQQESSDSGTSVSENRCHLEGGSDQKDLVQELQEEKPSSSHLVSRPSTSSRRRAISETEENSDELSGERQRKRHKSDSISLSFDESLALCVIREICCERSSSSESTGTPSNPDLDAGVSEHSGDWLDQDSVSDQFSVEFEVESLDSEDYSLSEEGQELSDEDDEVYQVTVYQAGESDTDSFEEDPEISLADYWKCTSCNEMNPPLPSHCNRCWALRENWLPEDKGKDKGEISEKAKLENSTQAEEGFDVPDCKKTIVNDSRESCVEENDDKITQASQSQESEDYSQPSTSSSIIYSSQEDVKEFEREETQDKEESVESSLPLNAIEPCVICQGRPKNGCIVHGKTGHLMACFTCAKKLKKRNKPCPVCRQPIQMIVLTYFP

`Cc1cc2c(C(C)C)c(O)c(O)c(C=O)c2c(O)c1-c1c(C)cc2c(C(C)C)c(O)c(O)c(C=O)c2c1O` [MX11, gossypol] was tested, and the Kd was 5.21 µM.
